From ChEMBL document CHEMBL2073995, “Possible involvement of P-glycoprotein in renal excretion of pazufloxacin in rats” (Eur J Pharmacol, 2004)

Target: ATP-dependent translocase ABCB1 (Homo sapiens, UniProt P08183)
Assay: TP_TRANSPORTER: cell accumulation in K562/ADR cells
Format: functional, cell-based

Chain of ATP-dependent translocase ABCB1 (P08183 whole entry): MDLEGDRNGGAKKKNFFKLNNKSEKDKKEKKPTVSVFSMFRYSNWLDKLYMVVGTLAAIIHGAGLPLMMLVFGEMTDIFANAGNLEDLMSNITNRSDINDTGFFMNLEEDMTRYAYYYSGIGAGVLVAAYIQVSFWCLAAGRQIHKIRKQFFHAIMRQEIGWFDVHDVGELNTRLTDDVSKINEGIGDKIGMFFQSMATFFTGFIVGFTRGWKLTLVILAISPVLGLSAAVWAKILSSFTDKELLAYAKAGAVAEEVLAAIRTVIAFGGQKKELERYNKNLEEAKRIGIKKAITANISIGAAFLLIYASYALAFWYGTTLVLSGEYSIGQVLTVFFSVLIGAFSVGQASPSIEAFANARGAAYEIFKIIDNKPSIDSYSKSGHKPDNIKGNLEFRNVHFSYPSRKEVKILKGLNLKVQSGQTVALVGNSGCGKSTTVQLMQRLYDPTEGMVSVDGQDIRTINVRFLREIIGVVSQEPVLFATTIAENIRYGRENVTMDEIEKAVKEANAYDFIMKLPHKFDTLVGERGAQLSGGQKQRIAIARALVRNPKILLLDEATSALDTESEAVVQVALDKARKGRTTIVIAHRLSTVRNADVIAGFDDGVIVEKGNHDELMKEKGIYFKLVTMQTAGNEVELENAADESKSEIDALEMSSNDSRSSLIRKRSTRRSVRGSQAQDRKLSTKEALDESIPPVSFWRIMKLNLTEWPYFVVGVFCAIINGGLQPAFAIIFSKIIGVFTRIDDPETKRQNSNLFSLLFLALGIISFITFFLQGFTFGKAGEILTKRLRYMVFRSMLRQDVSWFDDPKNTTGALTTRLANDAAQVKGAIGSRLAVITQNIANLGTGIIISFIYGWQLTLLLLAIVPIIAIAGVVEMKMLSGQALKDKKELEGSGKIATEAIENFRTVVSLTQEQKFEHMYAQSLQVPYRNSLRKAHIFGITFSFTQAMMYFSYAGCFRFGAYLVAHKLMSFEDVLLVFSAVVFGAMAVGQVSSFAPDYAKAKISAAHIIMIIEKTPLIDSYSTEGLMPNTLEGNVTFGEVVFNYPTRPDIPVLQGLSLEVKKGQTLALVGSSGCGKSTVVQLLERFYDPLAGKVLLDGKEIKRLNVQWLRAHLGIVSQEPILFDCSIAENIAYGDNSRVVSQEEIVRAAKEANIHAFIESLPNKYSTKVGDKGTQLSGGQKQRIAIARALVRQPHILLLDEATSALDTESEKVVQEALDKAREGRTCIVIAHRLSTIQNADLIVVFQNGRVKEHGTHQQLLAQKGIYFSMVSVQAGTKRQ

C[C@H]1COc2c(C3(N)CC3)c(F)cc3c(=O)c(C(=O)O)cn1c23 [PAZUFLOXACIN]
Activity: substrate [+]
